Measurements taken from US6936469B2, “Methods for delivering nucleic acid molecules into cells and assessment thereof” (Chromos Molecular Systems Inc., priority 2001, dated 2005).

What was measured:
CHO-KI cells = test: Ultrasound mediated transfection of CHO-KI cells with GFP chromosomes; type: cell-based
Method: Vesicles were prepared at a lipid concentration of 700 nmol/ml lipid (cationic lipid/DOPE 1:1) as follows. In a glass tube (10 ml) 350 nmol cationic lipid (SAINT-2) was mixed with 350 nmol dioleoylphosphatidylethanolamine (DOPE), both solubilized in an organic solvent (Chloroform, Methanol or Chloroform/Methanol 1:1, v/v). Dioleoylphosphatidylethanolamine (DOPE; Avanti Polar Lipids, Alabaster, Ala.) forms inverse hexagonal phases in a membrane and weakens the membrane. Other effectors that may be used are cis-unsaturated phosphatidylethanolamines, cis-unsaturated fatty acids, and cholesterol.
The solvent was evaporated under a stream of nitrogen (15 min/ 250 μl solvent at room temperature). The remaining solvent was removed totally by drying the lipid for 15 min in a desiccator under high vacuum from a vacuum pump. To the dried mixture was added 1 ml ultrapure water. This was vortexed vigorously for about […]. The resulting solution was sonicated in an ultrasonication bath (Laboratory Supplies Inc. NY) until a clear solution was obtained. The resulting suspension contained a population of unilamellar vesicles with a size distribution between 50 to 100 nm.
CHO-KI cells were grown at 37°, 5% CO2, in CHO-S-SFM 2 Medium, (Gibco BRL, Paisley, UK). Between 2×10^5 and 5×10^5 cells were plated onto sterile glass slides in a 12 well plate 24 h before usage.
(§1) Transfection of the cells was performed as follows. The medium was removed from the cells, and the cells were washed twice with HBSS (Hanks balanced salt solution without Phenol Red (Gibco BRL, UK)) at 37° C. Then 500 μl HBSS at 37° C. was added per well, followed by 10 μl of the freshly prepared vesicle solution (prepared in Example 2) to yield a final concentration of 23.3 nmol/ml.
(§2) Alternatively, the medium was removed from the cells, and the cells were washed twice with HBSS. 500 μl HBSS/lipid solution at 37° C. was added to each well. The HBSS/lipid solution was prepared by adding 1 μl ethanolic lipid solution (prepared as described above) to 500 μl HBSS under vigorous vortexing. The plates were then sealed with parafilm tape and shaken gently at room temperature for 30 min. After incubation, ultrasound was applied at an output energy of 0.5 Watt/cm^2 for 60 sec through the bottom of the plate to the cells. The ultrasound was mediated by an ultrasound gel (Aquasonic 100, Parker, N.J.) between transducer and plate. The ultrasound was applied with an ImaRx Sonoporator 100. Immediately after applying ultrasound one GFP chromosome per seeded cell (2×10^5-5×10^5) (prepared in Example 1) was added. The plate was then sealed again and shaken gently for 1 h at room temperature. […]

A9 cells = test: Ultrasound mediated transfection of A9 cells with GFP chromosomes; type: cell-based, murine
Method: as §1, §2

Hep-G2 cells = test: Ultrasound mediated transfection of Hep-G2 cells with GFP chromosomes; type: cell-based
Method: as §1, §2

[1] = tested on: V79-4 (Chinese Hamster Lung fibroblast) cells; test: Flow cytometry measurement of delivery of IdU labeled ACes with transfection agents; type: cell-based; conditions: percentage of transfected cells containing IdU labeled ACes, 1×10^6 ACes complexed with agent, agent dose in microliters per Table 2
Method: All compounds were tested in a Chinese Hamster lung fibroblast line (V79-4, ATCC number CCL-39). Approximately 17 hours (2 cell doublings) prior to transfection, exponentially growing cells were trypsinized and plated at 250,000 cells per well into a 6 well petri dish with Dulbecco's Modified Eagle Medium (Life Technologies, Burlington, ON) and supplemented with 10% FBS (Can Sera, Rexdale ON)). At the time of transfection, the number of cells per well was estimated to be approximately 1 million. For transfection, each individual manufacturer's protocol for complexing to naked DNA was followed, with the exception that the amount of transfection agent used was varied, to reflect the different amount and type of DNA present, as well as the different ionic strength of the complexing. […]
The percentage of transfected cells containing IdUrd-labeled ACes was determined using flow cytometry and collecting FITC fluorescence. Data were accumulated to form bivariate channel distribution showing forward scatter versus green fluorescence (IdUrd-FITC). The fluorescence level at which cells were determined to be positive was established by visual inspection of the histogram of negative control cells such that the gate for the negative cells was set such that 1% appeared in the positive region. […]

[2] = Saint-2/DOPE 1:1, ultrasound 0.5 Watt/cm^2 for 60 sec

Row | cells remained on the glass slide after transfection (CHO-KI cells; Saint-2/DOPE 1:1, ultrasound 0.5 Watt/cm^2 for 60 sec, visual inspection) [%] | cells remained on the glass after transfection (A9 cells; [2]) [%] | cells remained on the glass slide after transfection (Hep-G2 cells; [2]) [%] | Structure (SMILES) | GFP positive cells, of original population (CHO-KI cells; after 48 hours) [%] | remaining cells positive for green fluorescent protein expression (CHO-KI cells; after 48 hours, of the cells remaining on the slide) [%] | cells containing an intact artificial chromosome (FISH) (CHO-KI cells; after culturing for two weeks) [%] | remaining cells positive for green fluorescent protein expression (A9 cells; of the cells remaining on the glass) [%] | remaining cells positive for green fluorescent protein expression (Hep-G2 cells; of the cells remaining on the slide) [%] | DELIVERY % IdU positive (24 hours) [1] [%]
1 | 30 | 30 | 30 | CCCCCCCCC=CCCCCCCCCC(CCCCCCCCC=CCCCCCCCC)c1cc[n+](C)cc1.[Cl-] (stereo not drawn) [Saint-2, 1-methyl-4-(1-octadec-9-enyl-nonadec-10-enylenyl) pyridinium chloride] | 3 | 10 | 1.4 | 50 | 80 | –
2 | – | – | – | CCCCCCCCCCCCCCN=C(CCNCCCCCCCCCCCCCC)NC(C)(C)C [CLONFECTIN, N-t-butyl-N′-tetradecyl-3-tetradecyl-aminopropionamidine] | – | – | – | – | – | 0.61
